Results published in patent publication US20100215741A1, “PHARMACEUTICAL COMPOUNDS” (priority 2009, published 2010).
Like-named read-outs stand apart in the source and are kept apart here.

Assays:
CB2 receptors = target: T1, CB2 receptors (Mus musculus, UniProt P47936); experiment: radioreceptor binding, displacement of [3H]-CP-55,940, CB2 (spleen)
T1 construct: the complete brain (excluding the cerebellum) and the spleen were quickly dissected and kept in ice; from tissue; host or cells: mouse spleen, membrane preparation
Description: (§1) The affinity of the compounds towards the CB1 and CB2 cannabinoidergic receptors was evaluated in vitro by radioreceptor binding studies using the following method.
(§2) The technique of the receptor binding allows to establish if, and with which affinity and specificity, a specific compound binds to a particular receptor. To evaluate the affinity of a specific compound to a particular receptor it is necessary to challenge in a particular tissue preparation wherein those specific receptors are present the compound to be tested with a radioactive labelled compound whose affinity for the same receptors is known. […] The amount of radioactivity present in the receptor-compound complex allows furthermore to stimate with great accuracy the amount of compound bound to the receptor. By said method it is therefore possible to stablish quickly the affinity of a new compound towards a specific receptor and thus to determine its pharmacological activity. With the same experimental protocol it is possible to evaluate the affinity of the compound towards other receptors and thus establish its specificity degree toward said other receptors.
(§3) The food and water were ad libitum.
(§4) The procedure adopted, based on the use of the compound [^3H]-CP-55,940 (New England Nuclear, Boston, Mass., USA), requires the use of the mouse brain as biological tissue for the evaluation of the affinity towards the CB1 receptors and of the mouse spleen for the affinity assay for the CB2 receptors.
(§5) The animals were sacrificed by cervical dislocation and the complete brain (excluding the cerebellum) and the spleen were quickly dissected and kept in ice.
(§6) The tissue was homogenized in 15 volumes (weight/-volume) of TME buffer (50 Mm Tris, 1 mM EDTA and 3 mM MgCl2, pH 7.4) by an Ultra-Turrax and subsequently centrifuged for 10 minutes at 1086×g in a centrifuge refrigerated at 4° C. The recovered supernatant was centrifuged at 45,000×g for 30 minutes at 4° C. by using a Beckman SW41 rotor and the obtained pellet was resuspended in 50 volumes of TME.
(§7) The thus obtained membranes (50-80 μg of proteins) were incubated in the presence of 1 nM of [^3H]-CP55.940 for 1 hour at 30° C. in a final volume of 0.5 ml of TME buffer containing […] (BSA). The non specific binding was measured in the presence of CP55.940 at a 1 μM concentration.
(§8) All the experiments were carried out in polypropylene test tubes pretreated with Sigma-Cote (Sigma Chemical Co. Ltd., Poole, UK) for reducing non specific binding.
(§9) In order to determine the competitive inhibition binding curves, eight different concentrations of each compound were used.
(§10) Incubation was stopped by addition of TME buffer (at 4° C.) containing 5 mg/ml of BSA, and subsequent filtration under vacuum by Whatman GFC filters pretreated with 0.5% of polyethylamine (PEI) and by using a filtering device (Brandell, Gaithersburg, Md., USA). The filters were washed 3 times with 5 ml of Tris HCl buffer (pH 7.4, 4° C.) containing 1 mg/ml of BSA and separately placed in plastic vials containing 4 ml of scintillating liquid (Ultima Gold MV, Packard).
(§11) The radioactivity present in the filters was determined by a scintillator spectrophotometer (Tricarb® 2100, Packard, Meridien, USA).
(§12) Protein determination was carried out by the Bradford method by using the protocol and the reactants supplied by Bio-Rad (Milano, Italy).

CB1 receptors = target: T2, CB1 receptors (Mus musculus, UniProt P47746); experiment: radioreceptor binding, displacement of [3H]-CP-55,940, CB1 (brain)
T2 construct: the complete brain (excluding the cerebellum) and the spleen were quickly dissected and kept in ice; from tissue; host or cells: mouse brain (excluding the cerebellum), membrane preparation
Description: as §1, §2, §3, §4, §5, §6, §7, §8, §9, §10, §11, §12

[1] = mouse spleen membranes, 1 nM [3H]-CP55.940, 1 hour at 30° C., read-out: CB2 (spleen) Ki

T2 sequence (P47746 whole entry): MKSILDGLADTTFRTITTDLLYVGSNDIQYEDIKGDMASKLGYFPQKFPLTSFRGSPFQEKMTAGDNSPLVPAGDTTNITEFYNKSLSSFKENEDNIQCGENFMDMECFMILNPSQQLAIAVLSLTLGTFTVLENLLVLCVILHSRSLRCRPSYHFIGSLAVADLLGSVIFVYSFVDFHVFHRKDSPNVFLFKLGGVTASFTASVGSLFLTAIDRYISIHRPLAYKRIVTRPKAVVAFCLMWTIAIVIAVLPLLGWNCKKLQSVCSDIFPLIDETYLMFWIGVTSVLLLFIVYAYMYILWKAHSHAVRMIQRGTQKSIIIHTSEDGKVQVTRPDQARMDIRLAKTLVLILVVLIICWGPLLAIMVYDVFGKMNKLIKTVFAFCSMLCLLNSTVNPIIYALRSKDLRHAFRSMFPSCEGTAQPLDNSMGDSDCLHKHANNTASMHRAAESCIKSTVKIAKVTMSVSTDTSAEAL
T1 sequence (P47936 whole entry): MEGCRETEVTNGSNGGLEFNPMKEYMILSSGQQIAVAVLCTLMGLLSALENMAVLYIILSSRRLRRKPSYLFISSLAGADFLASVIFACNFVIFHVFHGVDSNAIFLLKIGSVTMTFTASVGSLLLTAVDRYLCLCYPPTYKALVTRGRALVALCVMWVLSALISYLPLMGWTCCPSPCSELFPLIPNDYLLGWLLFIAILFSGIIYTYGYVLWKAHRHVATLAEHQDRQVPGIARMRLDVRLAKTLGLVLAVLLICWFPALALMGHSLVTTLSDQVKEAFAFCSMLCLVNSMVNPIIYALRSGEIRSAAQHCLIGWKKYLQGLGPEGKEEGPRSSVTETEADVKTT

In the case of Cc1ccc2c(c1)oc1c(C(N)=O)nn(-c3ccc(Cl)cc3Cl)c12 [1-(2,4-dichlorophenyl)-6-methyl-1H-benzofuro [3,2-c]pyrazole-3-carboxamide], the melting point is reported as 185 to 186 °C.

In the case of CC1(C)C2CCC(CNC(=O)c3nn(-c4ccc(Cl)cc4Cl)c4c3CCCc3ccc(Cl)cc3-4)C1C2 (stereo not shown) [Example 3.1, N-myrtanyl-9-chloro-1-(2′,4′-dichlorophenyl)-1,4,5,6-tetrahydrobenzo[6,7]cyclohepta[1,2-c]pyrazol-3-carboxamide], the Ki (CB2 receptors; [1]) is reported as 23.3 ± 1.6 nM and the Ki (CB1 receptors) is reported as 20 ± 5 nM.

In the case of CC1(C)C2CCC(CNC(=O)c3nn(-c4ccc(Cl)cc4Cl)c4c3CCOc3cc(Cl)ccc3-4)C1C2 (stereo not shown) [Example 3.3, N-myrtanyl-8-chloro-1-(2′,4′-dichlorophenyl)-4,5-dihydrobenzo-1H-6oxa-cyclohepta[1,2-c]pyrazol-3-carboxamide], the melting point is reported as 142 to 143 °C, the Ki (CB2 receptors; [1]) is reported as 325 ± 38 nM and the Ki (CB1 receptors) is reported as 21.7 ± 3 nM.

Compound CC1(C)C2CCC(CNC(=O)c3nn(-c4ccc(Cl)cc4Cl)c4c3CCCc3cc(Cl)ccc3-4)C1C2 (stereo not shown) [Example 3.4, N-myrtanyl-8-chloro-1-(2′,4′-dichlorophenyl)-1,4,5,6-tetrahydrobenzo[6,7]cyclohepta[1,2-c]pyrazol-3-carboxamide] has a Ki (CB2 receptors; [1]) of 19.6 ± 1.5 nM and a Ki (CB1 receptors) of 2.6 ± 0.17 nM.

Cc1ccc2c(c1)Cc1c(C(=O)NCC3CCC4CC3C4(C)C)nn(-c3ccc(Cl)cc3Cl)c1-2 (stereo not shown) [Example 3.15, N-myrtanyl-1-(2′,4′-dichlorophenyl)-6-methyl-1,4-dihydroindeno[1,2-c]pyrazole-3-carboxamide] showed a Ki (CB2 receptors; [1]) of 2.3 ± 0.5 nM and a Ki (CB1 receptors) of 350 ± 76 nM.

With Cc1ccc2c(c1)oc1c(C(=O)NN3CCCCC3)nn(-c3ccc(Cl)cc3Cl)c12 [Example 3.20, N-piperidinyl-1-(2,4-dichlorophenyl)-6-methyl-1H-benzofuro[3,2-c]pyrazole-3-carboxamide] the melting point was 155 to 157 °C, the Ki (CB2 receptors) was 12.9 ± 1.1 nM and the Ki (CB1 receptors) was 1790 ± 330 nM.

With Cc1ccc2c(c1)oc1c(C(=O)NN3CCCC3)nn(-c3ccc(Cl)cc3Cl)c12 [Example 3.21, N-pyrrolidinyl-1-(2,4-dichlorophenyl)-6-methyl-1H-benzofuro[3,2-c]pyrazole-3-carboxamide] the melting point was 90 to 92 °C, the Ki (CB2 receptors) was 29.5 ± 8 nM and the Ki (CB1 receptors) was 2720 ± 652 nM.

For Cc1ccc2c(c1)oc1c(C(=O)NN3CCOCC3)nn(-c3ccc(Cl)cc3Cl)c12 [Example 3.22, N-morpholin-4-yl-1-(2,4-dichlorophenyl)-6-methyl-1H-benzofuro[3,2-c]pyrazole-3-carboxamide], the melting point was 178 to 180 °C, the Ki (CB2 receptors) was 37.7 ± 6.3 nM and the Ki (CB1 receptors) was 4060 ± 64 nM.

With Cc1ccc2c(c1)oc1c(C(=O)NC3CCCCC3)nn(-c3ccc(Cl)cc3Cl)c12 [Example 3.23, N-cyclohexyl-1-(2,4-dichlorophenyl)-6-methyl-1H-benzofuro[3,2-c]pyrazole-3-carboxamide] the melting point was 140 to 142 °C, the Ki (CB2 receptors) was 15.6 ± 4 nM and the Ki (CB1 receptors) was 1250 ± 129 nM.

For Cc1ccc2c(c1)oc1c(C(=O)N[C@H]3C[C@@H](C)CC[C@@H]3C(C)C)nn(-c3ccc(Cl)cc3Cl)c12 [Example 3.24, N-2-isopropyl-5-methyl-cyclohexyl-1-(2,4-dichlorophenyl)-6-methyl-1H-benzofuro[3,2-c]pyrazole-3-carboxamide], the melting point was 70 to 72 °C, the Ki (CB2 receptors; [1]) was 2.3 ± 0.3 nM and the Ki (CB1 receptors) was 38.2 ± 6 nM.

Cc1ccc2c(c1)oc1c(C(=O)N[C@@H]3C[C@H]4C[C@@H]([C@@H]3C)C4(C)C)nn(-c3ccc(Cl)cc3Cl)c12 [Example 3.25, N-2,6,6-trimethyl-bicyclo[3.1.1]hept-3-yl-1-(2,4-dichlorophenyl)-6-methyl-1H-benzofuro[3,2-c]pyrazole-3-carboxamide] showed a melting point of 85 to 87 °C, a Ki (CB2 receptors) of 3.7 ± 0.3 nM and a Ki (CB1 receptors) of 2400 ± 629 nM.

Compound Cc1ccc2c(c1)oc1c(C(=O)NC3C4(C)CCC(C4)C3(C)C)nn(-c3ccc(Cl)cc3Cl)c12 (stereo not shown) [Example 3.26, N-1,3,3-trimethyl-bicyclo[2.2.1]hept-2-yl-1-(2,4-dichlorophenyl)-6-methyl-1H-benzofuro[3,2-c]pyrazole-3-carboxamide] has a melting point of 84 to 86 °C, a Ki (CB2 receptors) of 2.5 ± 0.3 nM and a Ki (CB1 receptors) of 257 ± 7 nM.

For Cc1ccc2c(c1)oc1c(C(=O)NC3CC4CCC3(C)C4(C)C)nn(-c3ccc(Cl)cc3Cl)c12 (stereo not shown) [Example 3.27, N-1,7,7-trimethyl-bicyclo[2.2.1]hept-2-yl-1-(2,4-dichlorophenyl)-6-methyl-1H-benzofuro[3,2-c]pyrazole-3-carboxamide], the melting point was 78 to 80 °C, the Ki (CB2 receptors) was 3.5 ± 0.6 nM and the Ki (CB1 receptors) was 469 ± 64 nM.

With Cc1ccc2c(c1)oc1c(C(=O)NC34CC5CC(CC(C5)C3)C4)nn(-c3ccc(Cl)cc3Cl)c12 [Example 3.28, N-adamantan-1yl-1-(2,4-dichlorophenyl)-6-methyl-1H-benzofuro[3,2-c]pyrazole-3-carboxamide] the melting point was 210 to 212 °C, the Ki (CB2 receptors) was 28 ± 6.6 nM and the Ki (CB1 receptors) was 363 ± 92 nM.

Work on Cc1ccc2c(c1)oc1c(C(=O)NC3C4CC5CC(C4)CC3C5)nn(-c3ccc(Cl)cc3Cl)c12 (stereo not shown) [Example 3.29, N-adamantan-2-yl-1-(2,4-dichlorophenyl)-6-methyl-1H-benzofuro[3,2-c]pyrazole-3-carboxamide] yielded a melting point of 209 to 211 °C, a Ki (CB2 receptors) of 17.5 ± 0.9 nM and a Ki (CB1 receptors) of 537 ± 132 nM.
